Assays:
[1] = Measurement of pH of acid; assay type: physicochemical; settings: one part by weight of acid in 99 parts by weight of distilled water
Protocol: One part by weight of the acid to be measured is mixed with 99 parts by weight of distilled water, and the pH of the resulting mixture is measured with a pH meter (Iuchi's pH meter).

[2] = Solubility of a calcium salt of an acid in water; settings: for Calcium Salt of Acid: Solubility in water: room temperature, macroscopic check clear or cloudy
Protocol: Next, powdery calcium carbonate (0.1 mmols) is fed into the test tube, and stirred at room temperature for 10 minutes so that it is reacted with the acid. The resulting solution is macroscopically checked as to whether it is clear or cloudy. The solubility of the calcium salt in the clear solution is above 0.1 M/L, and the acid is marked “x”.
To the cloudy solution in the test tube, 9 ml of distilled water is further added, and stirred at room temperature for 30 minutes. This is again checked macroscopically. […] When it is still cloudy in this condition, the solubility of the calcium salt is below 0.01 M/L, and the acid is marked “O”. In case where the solubility of the calcium salt of the acid tested is numerically represented, test tubes having a proper capacity are prepared, and the process as above is repeated in them. Salt solutions having different concentrations are prepared, and they are macroscopically checked to quantitatively determine the solubility of the salt.

[3] = Solubility of calcium salt of acid in film-forming agent
Protocol: Next, powdery calcium carbonate (0.1 mmols) is fed into the test tube, and stirred at room temperature for 10 minutes so that it is reacted with the acid to give a calcium salt of the acid. Next, the resulting solution is dried in a drier at 60° C. for 16 hours to remove water, and the 1 ml of a film-forming agent is added to the resulting residue. This is stirred at room temperature for 30 minutes, and the resulting solution is macroscopically checked as to whether it is clear or cloudy. The solubility of the calcium salt in the clear solution is above 0.1 M/L, and the acid is marked “x”.
To the cloudy solution in the test tube, 9 ml of the film-forming agent is further added, and stirred at room temperature for 30 minutes. This is again checked macroscopically. […] When it is still cloudy in this condition, the solubility of the calcium salt is below 0.01 M/L, and the acid is marked “O”. For easily-available calcium salts of acids, such as calcium chloride. calcium nitrate and others, they are not produced in the manner as above, but commercial products are used to measure their solubility.

[4] = Miscibility of film-forming agent with physiological saline solution (uniformity of solution); assay type: physicochemical; settings: film-forming agent mixed with same weight of physiological saline solution 9 g/L, room temperature, shaken 20 seconds, macroscopically checked
Protocol: The film-forming agent must be soluble in water. Preferably, at least 5% by weight of the agent are soluble in water. More preferably, it is soluble in water in any ratio. In addition, the water-soluble film-forming agent must be miscible with a physiological saline solution. Whether the film-forming agent is miscible with a physiological saline solution or not can be determined from its phase diagram. […] The uniformity of the resulting solution is determined. Accordingly, the miscibility of the film-forming agent with a physiological saline solution can be determined in a simple manner.
About 1 g of the film-forming agent shown in Table 1 below was metered into a 5 ml glass bottle, and a physiological saline solution with a concentration of 9 g/L of which the weight was the same as that of the film-forming agent was put into the glass bottle, and shaken at room temperature for 20 seconds. The resulting mixture was macroscopically checked as to whether or not it could be a uniform solution.

[5] = film-forming agent 65% HEMA, 30% BMHPE, 5% Bis-GMA (Table 3)
[6] = film-forming agent 90% by weight HEMA and 10% by weight BMHPE (Table 2)

Row | Compound | pH of Acid [1] | Calcium Salt of Acid: Solubility in Film-forming Agent [3, 6] | Solubility (Uniformity of Reference Solutions) [4] | also measured
1 | 8-methacryloyloxyoctyl phosphate [Example 8MOP] | 2.2 | – | – | –
2 | 12-methacryloyloxydodecyl phosphate [Example 12MLP] | 2.3 | ◯ | – | Calcium Salt of Acid: Solubility in water [2]: ◯; Calcium Salt of Acid: Solubility in Film-forming Agent [3, 5]: ◯
3 | C=C(C)C(=O)OCC(O)COCCOCC(O)COC(=O)C(=C)C (centres unmarked) [BMHPE, 1,2-bis(3-methacryloxy-2-hydroxypropoxy)ethane] | – | – | not dissolved | –
4 | C=C(C)C(=O)OCCOP(=O)(O)O [Example 2MEP, 2-methacryloyloxyethyl phosphate] | 1.7 | ◯ | – | Calcium Salt of Acid: Solubility in water [2]: ◯
5 | C=C(C)C(=O)OCCO [HEMA, hydroxyethyl methacrylate] | – | – | dissolved | –
6 | Cl [hydrochloric acid] | 0.9 | – | – | –
7 | O=[N+]([O-])O [nitric acid] | 0.9 | – | – | –
8 | O=S(=O)(O)O [sulfuric acid] | 1.1 | – | – | –

Continued, in another order:

Row | pH of Acid [1] | Calcium Salt of Acid: Solubility in Film-forming Agent [3, 6] | Solubility (Uniformity of Reference Solutions) [4] | Compound | also measured
9 | 2.2 | ◯ | – | 9-methacryloyloxynonyl phosphate [Example 9MNP] | Calcium Salt of Acid: Solubility in water [2]: ◯; Calcium Salt of Acid: Solubility in Film-forming Agent [3, 5]: ◯
10 | 2.3 | ◯ | – | C=C(C)C(=O)OCCCCCCCCCCOP(=O)(O)O [Example 10MDP, 10-methacryloyloxydecyl phosphate] | solubility in water of calcium salt ([2]; numerical value): 0.0003 M/L; Calcium Salt of Acid: Solubility in water [2]: ◯; Calcium Salt of Acid: Solubility in Film-forming Agent [3, 5]: ◯
11 | – | – | dissolved | C=C(C)C(=O)OCC(O)CO (centres unmarked) [GLM, glycerol monomethacrylate] | –
12 | – | – | not dissolved | C=C(C)C(=O)OCCCO [HPMA, hydroxypropyl methacrylate] | –
13 | 2.9 | ◯ | – | C=C(C)C(=O)O [MRA, methacrylic acid, reference compound] | –
14 | 1.4 | ◯ | – | Cc1ccc(S(=O)(=O)O)cc1 [TSA, p-toluenesulfonic acid, reference compound] | solubility of the calcium salt of the acid in water (in words) ([2]; description, acid used in place of the polymerizable compound having an acid group): too high
15 | 1.6 | – | – | O=C(O)CC(O)(CC(=O)O)C(=O)O [citric acid] | –
16 | 1.3 | – | – | O=C(O)C(=O)O [oxalic acid] | –
17 | 1.6 | – | – | O=P(O)(O)O [phosphoric acid] | –
18 | – | – | not dissolved | dimethacrylate of polyethylene glycol 200 [PE-200-OMR] | –
19 | – | – | dissolved | monomethacrylate of polyethylene glycol 200 [PE-200-OH] | –
20 | 1.7 | – | – | phenyl-2-methacryloyloxyethyl phosphate [PMEP] | –

— US6750268B2, “Bonding composition” (Kuraray Co., Ltd., priority 1999, dated 2004)
